# From patent US10174013B2, “Benzimidazole derivatives as kinase inhibitors” (SELVITA S.A., priority 2012, dated 2019)
# Counter-ions that a name gives are not always drawn. Like-named read-outs stand apart in the source and are kept apart here.
# Legend:
# Pim-1 = Pim-1 (Homo sapiens (Human), UniProt P11309); test: ADP-Glo Kinase Assay, Pim-1; format: biochemical; settings: 1 μM compound; for inhibition at 1 µM: read-out: Pim-1 % INH (1 μM)
# Description: (§1) Compounds of the present invention were tested for their inhibitory activity against Pim-1, Pim-2, Pim-3, Flt3 wt, Flt3 ITD, CDK2/E and DYRK1. The testing of the compounds was carried out using the ADP-Glo™ Kinase Assay from Promega Corporation (Madison, Wis., USA).
# (§2) The ADP-Glo™ Kinase Assay is a luminescent ADP detection assay to measure kinase activity by quantifying the amount of ADP produced during a kinase reaction. The kinase assay is performed in kinase assay buffer (5 mM MOPS, pH 7.5, 5 mM MgCl2, 0.4 mM EDTA, 1.5 mM DTT). Test samples initially dissolved in DMSO at 10 mM were diluted with the assay buffer to 1000 nM. A 30 μL volume/well of a mixture of substrates containing ATP (final ATP concentration in each kinase assay was equal to its apparent ATP Km).
# (§3) The assay was performed in two steps: first, after the kinase reaction, an equal volume of ADP-Glo™ Reagent was added to terminate the kinase reaction and deplete the remaining ATP. Second, the Kinase Detection Reagent was added to simultaneously convert ADP to ATP and allowed the newly synthesized ATP to be measured using a luciferase/luciferin reaction. The luminescent signal generated was proportional to the ADP concentration produced and was correlated with kinase activity. A microplate spectrophotometer (Synergy 2 multi-mode microplate reader [BioTek]) was used for detecting the luminescence. The data was normalized and the percent of inhibition was obtained according to the following equation: […]
# Pim-2 = Pim-2 (Homo sapiens (Human), UniProt Q9P1W9); test: ADP-Glo Kinase Assay, Pim-2; format: biochemical; settings: 1 μM compound; for inhibition at 1 µM: read-out: Pim-2 % INH (1 μM)
# Pim-2, sequence (Q9P1W9 whole entry): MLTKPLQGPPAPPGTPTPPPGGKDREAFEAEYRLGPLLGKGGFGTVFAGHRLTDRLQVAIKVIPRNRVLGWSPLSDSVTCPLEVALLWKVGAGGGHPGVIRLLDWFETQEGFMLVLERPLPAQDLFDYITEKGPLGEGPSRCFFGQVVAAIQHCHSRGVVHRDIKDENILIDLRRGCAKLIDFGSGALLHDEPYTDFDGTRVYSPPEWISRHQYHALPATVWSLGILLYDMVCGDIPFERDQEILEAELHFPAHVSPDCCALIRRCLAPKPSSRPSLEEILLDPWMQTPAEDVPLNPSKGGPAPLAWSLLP
# Description: as §1, §2, §3
# Pim-3 = Pim-3 (Homo sapiens (Human), UniProt Q86V86); test: ADP-Glo Kinase Assay, Pim-3; format: biochemical; settings: 1 μM compound; for inhibition at 1 µM: read-out: Pim-3 % INH (1 μM)
# Description: as §1, §2, §3
# FLT3wt = FLT3wt (Homo sapiens (Human), UniProt P36888); test: ADP-Glo Kinase Assay, Flt3 wt; format: biochemical; settings: 1 μM compound; for inhibition at 1 µM: read-out: Flt3wt % INH (1 μM)
# FLT3wt, sequence (P36888 27-993): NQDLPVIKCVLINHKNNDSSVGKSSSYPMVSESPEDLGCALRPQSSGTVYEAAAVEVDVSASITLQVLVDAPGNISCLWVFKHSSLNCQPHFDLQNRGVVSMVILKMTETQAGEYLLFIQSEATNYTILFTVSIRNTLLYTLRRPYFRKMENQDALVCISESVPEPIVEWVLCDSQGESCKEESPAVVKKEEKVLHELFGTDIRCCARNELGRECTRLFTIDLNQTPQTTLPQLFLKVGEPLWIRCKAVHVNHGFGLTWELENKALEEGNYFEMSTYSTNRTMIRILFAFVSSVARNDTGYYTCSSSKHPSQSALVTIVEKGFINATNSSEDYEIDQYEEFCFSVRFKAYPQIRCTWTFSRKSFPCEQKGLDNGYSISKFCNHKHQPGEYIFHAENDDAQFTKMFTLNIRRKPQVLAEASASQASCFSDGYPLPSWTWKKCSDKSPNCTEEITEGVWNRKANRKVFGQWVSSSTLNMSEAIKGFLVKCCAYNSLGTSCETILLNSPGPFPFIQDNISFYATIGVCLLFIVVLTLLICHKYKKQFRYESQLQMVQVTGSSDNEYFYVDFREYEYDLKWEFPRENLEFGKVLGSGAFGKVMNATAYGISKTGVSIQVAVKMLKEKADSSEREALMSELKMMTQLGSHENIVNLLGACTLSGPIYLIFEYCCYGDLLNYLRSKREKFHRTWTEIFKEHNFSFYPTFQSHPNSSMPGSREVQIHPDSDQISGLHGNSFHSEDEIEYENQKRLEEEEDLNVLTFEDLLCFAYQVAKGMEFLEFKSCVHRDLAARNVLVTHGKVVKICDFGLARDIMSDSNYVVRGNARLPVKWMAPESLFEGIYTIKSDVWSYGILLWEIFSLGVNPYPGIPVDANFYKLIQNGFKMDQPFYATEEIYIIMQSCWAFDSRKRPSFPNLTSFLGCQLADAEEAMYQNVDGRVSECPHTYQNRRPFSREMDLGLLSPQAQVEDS
# Description: as §1, §2, §3
# CDK2/E = CDK2/E (Homo sapiens (Human), UniProt P24941); test: ADP-Glo Kinase Assay, CDK2/E; format: biochemical; settings: 1 μM compound; for inhibition at 1 µM: read-out: CDK2/E % INH (1 μM)
# Description: as §1, §2, §3
# DYRK1 = DYRK1 (Homo sapiens (Human), UniProt Q13627); test: ADP-Glo Kinase Assay, DYRK1; format: biochemical; settings: 1 μM compound; for inhibition at 1 µM: read-out: DYRK1A % INH (1 μM)
# Description: as §1, §2, §3
# MV4-11 cells = test: Growth inhibition, MTS assay, MV4-11; format: cell-based, Human; settings: MTS cell viability, read-out: MV4-11 ED50
# Text: (§4) The following cell lines, were obtained and used in tests as outlined below: • Human myelomonocytic, biphenotypic leukemia MV4-11 cells (harboring a Flt3-ITD mutation); • Human Acute Myeloid Leukemia MOLM16 cells; • Human Acute Myeloid Leukemia MOLM13 cells (harboring a Flt3-ITD mutation); • Human Myeloid Leukemia KG-1 cells; • Human erythroleukemia HEL92 cells; • Human mantle cell lymphoma Jeko-1 cells; • Human hepatocellular carcinoma HepG2 cells; and • Human colon adenocarcinoma SW-480 cells.
# (§5) The assays were carried out according to the following protocol, which is described as an example for the MV4-11 cells:
# (§6) Ten thousand MV4-11 cells were inoculated into each well of a 96-well microplate (manufactured by Corning Corp.) using Iscove's MDM medium (culture medium) containing 10% fetal calf serum (FCS). The same day, a dimethyl sulfoxide (DMSO) solution of each test compound prepared in a concentration of 10 mmol/L was further diluted with DMSO to the desired concentrations (0.1, 0.5, 1, 2.5, 5 and 10 micromol/L), and the diluted solution was added to each well. The individual wells were further cultured in 5% carbon dioxide at 37° C. for 72 hours. […] Briefly, 10 μl MTS (3-(4,5-Dimethyl-2-thiazolyl)-5-(carboxymethoxyphenyl)-2-(4-sulfophenyl)-2H-tetrazolium was added to each well, and culturing was performed in 5% carbon dioxide at 37° C. for 2 hours. After this incubation and using a microplate spectrophotometer (Synergy 2 multi-mode microplate reader (BioTek)), the absorbance of each well was measured at 490 nm. The value for cells not incubated with a test compound was designated as 100%. By comparing these values with the absorbance difference obtained at the well in which each test compound was added, the cell viability (% viability) after treatment with the test compound was calculated.
# HEL92 cells = test: Growth inhibition, MTS assay, HEL92; format: cell-based, Human; settings: MTS cell viability, read-out: HEL92 ED50
# Text: as §4, §5, §6
# HepG2 cells = test: Growth inhibition, MTS assay, HepG2; format: cell-based, Human; settings: MTS cell viability, read-out: HepG2 ED50
# Text: as §4, §5, §6
# SW-480 cells = test: Growth inhibition, MTS assay, SW-480; format: cell-based, Human; settings: 72 hours, MTS cell viability, read-out: SW-480 ED50
# Text: as §4, §5, §6
# Pim-1, sequence (P11309 whole entry): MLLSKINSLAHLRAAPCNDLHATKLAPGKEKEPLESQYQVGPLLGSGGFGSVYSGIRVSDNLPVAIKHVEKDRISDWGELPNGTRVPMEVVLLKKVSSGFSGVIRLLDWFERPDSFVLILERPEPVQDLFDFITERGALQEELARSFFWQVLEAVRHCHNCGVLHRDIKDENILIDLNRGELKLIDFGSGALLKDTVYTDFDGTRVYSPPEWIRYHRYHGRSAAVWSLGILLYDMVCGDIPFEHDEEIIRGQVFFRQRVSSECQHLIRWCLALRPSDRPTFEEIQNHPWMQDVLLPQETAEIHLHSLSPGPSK
inhibition at 1 µM (Pim-1),inhibition at 1 µM (Pim-2),inhibition at 1 µM (Pim-3),inhibition at 1 µM (FLT3wt),inhibition at 1 µM (CDK2/E),inhibition at 1 µM (DYRK1),"IC50 (MV4-11 cells; Homo sapiens, MV4-11, 72 h)","IC50 (HepG2 cells; Homo sapiens, HepG2, 72 h)",Pim-1 % INH (1 μM) (Pim-1),Pim-2 % INH (1 μM) (Pim-2),Pim-3 % INH (1 μM) (Pim-3),Flt3wt % INH (1 μM) (FLT3wt),CDK2/E % INH (1 μM) (CDK2/E),DYRK1A % INH (1 μM) (DYRK1),IC50 (MV4-11 cells; 72 hours),IC50 (HepG2 cells; 72 hours),"IC50 (SW-480 cells; Homo sapiens, SW480)",IC50 (SW-480 cells),SMILES,"IC50 (HEL92 cells; Homo sapiens, 72 h)",IC50 (HEL92 cells; 72 hours)
> 95%,36%,88%,49%,11%,43%,500 nM,1800 nM,–,–,–,–,–,–,–,–,–,–,"CC(C)n1c(N2CCN[C@H](C)C2)nc2c([N+](=O)[O-])c(Br)c(Br)cc21 [Example 22AA, 5,6-dibromo-2-[(3R)-3-methylpiperazin-1-yl]-4-nitro-1-(propan-2-yl)-1H-1,3-benzodiazole]",1200 nM,–
–,–,–,–,–,–,2800 nM,1400 nM,–,–,–,–,–,–,–,–,1400 nM,–,"CCn1c(NCC2CCN(CCN(C)C)C2)nc2c([N+](=O)[O-])c(Br)c(Br)cc21 (stereo not drawn) [Example 22O, 5,6-dibromo-N-({1-[2-(dimethylamino)ethyl]pyrrolidin-3-yl}methyl)-1-ethyl-4-nitro-1H-1,3-benzodiazol-2-amine]",2500 nM,–
–,–,–,–,–,–,2900 nM,2700 nM,–,–,–,–,–,–,–,–,2500 nM,–,"CCn1c(NCCCN2CCCC2)nc2c([N+](=O)[O-])c(Br)c(Br)cc21 [Example 22P, 5,6-dibromo-1-ethyl-4-nitro-N-[3-(pyrrolidin-1-yl)propyl]-1H-1,3-benzodiazol-2-amine]",5900 nM,–
80%,–,57%,< 5%,< 5%,–,1700 nM,1500 nM,–,–,–,–,–,–,–,–,4900 nM,–,"CCn1c(N2CCNC(C)(C)C2)nc2c([N+](=O)[O-])c(Br)c(Br)cc21 [Example 22W, 5,6-dibromo-2-(3,3-dimethylpiperazin-1-yl)-1-ethyl-4-nitro-1H-1,3-benzodiazole]",9500 nM,–
74%,–,56%,< 5%,< 5%,39%,700 nM,2300 nM,–,–,–,–,–,–,–,–,5000 nM,–,"CCn1c(N2CCNC(C)C2)nc2c([N+](=O)[O-])c(Br)c(Br)cc21 (stereo not drawn) [Example 22X, 5,6-dibromo-1-ethyl-2-(3-methylpiperazin-1-yl)-4-nitro-1H-1,3-benzodiazole]",8700 nM,–

# Second part, the compound before the results:
SMILES,inhibition at 1 µM (Pim-1),inhibition at 1 µM (Pim-2),inhibition at 1 µM (Pim-3),inhibition at 1 µM (FLT3wt),inhibition at 1 µM (CDK2/E),inhibition at 1 µM (DYRK1),"IC50 (MV4-11 cells; Homo sapiens, MV4-11, 72 h)","IC50 (HepG2 cells; Homo sapiens, HepG2, 72 h)",Pim-1 % INH (1 μM) (Pim-1),Pim-2 % INH (1 μM) (Pim-2),Pim-3 % INH (1 μM) (Pim-3),Flt3wt % INH (1 μM) (FLT3wt),CDK2/E % INH (1 μM) (CDK2/E),DYRK1A % INH (1 μM) (DYRK1),IC50 (MV4-11 cells; 72 hours),IC50 (HepG2 cells; 72 hours),"IC50 (SW-480 cells; Homo sapiens, SW480)",IC50 (SW-480 cells),"IC50 (HEL92 cells; Homo sapiens, 72 h)",IC50 (HEL92 cells; 72 hours)
CC(C)n1c(NC2CCNC2)nc2c([N+](=O)[O-])c(Br)c(Br)cc21 (stereo not drawn) [Example 1BA],> 95%,51%,82%,15%,6%,52%,1100 nM,1900 nM,–,–,–,–,–,–,–,–,–,–,6900 nM,–
CC(O)Cn1c(N2CCNCC2)nc2c([N+](=O)[O-])c(Br)c(Br)cc21 (stereo not drawn) [Example 1BS],> 95%,21%,48%,39%,21%,66%,900 nM,3600 nM,–,–,–,–,–,–,–,–,–,–,4600 nM,–
CC(C)n1c(NC2CCCNC2)nc2c(C#N)c(Br)c(Br)cc21 (stereo not drawn) [Example 1BT],70%,16%,56%,23%,26%,22%,500 nM,1200 nM,–,–,–,–,–,–,–,–,–,–,5700 nM,–
CC(C)n1c(N2CCC[C@H](N)C2)nc2c(C#N)c(Br)c(Br)cc21 [Example 1BV],–,–,–,–,–,–,–,–,>95%,82%,91%,39%,11%,80%,5100 nM,2900 nM,–,–,5300 nM,–
O=[N+]([O-])c1c(Br)c(Br)cc2c1nc(N[C@@H]1CCCNC1)n2CC1CC1 [Example 1CH],–,–,–,–,–,–,–,–,82%,10%,32%,17%,9%,14%,5000 nM,2200 nM,–,–,–,5700 nM
O=[N+]([O-])c1c(Br)c(Br)cc2c1nc(N[C@H]1CCNC1)n2CC1CC1 [Example 1CI],–,–,–,–,–,–,–,–,>95%,64%,75%,19%,10%,57%,1600 nM,1400 nM,–,–,–,6100 nM
CCn1c(NCCCN)nc2c([N+](=O)[O-])c(Br)c(Br)cc21 [Example 1C],85%,28%,70%,< 5%,< 5%,–,3100 nM,4100 nM,–,–,–,–,–,–,–,–,7400 nM,–,> 10000 nM,–
O=[N+]([O-])c1c(Br)c(Br)cc2[nH]c(N3CCNCC3)nc12 [Example 1E],–,–,–,–,–,–,3300 nM,6800 nM,–,–,–,–,–,–,–,–,8100 nM,–,–,–
CCn1c(N2CCC(N)CC2)nc2c([N+](=O)[O-])c(Br)c(Br)cc21 [Example 1I],–,–,–,–,–,–,–,–,–,–,–,–,–,–,5100 nM,4300 nM,–,5600 nM,–,–
"C#CCn1c(N2CCNCC2)nc2c([N+](=O)[O-])c(Br)c(Br)cc21 [Example 2B, 5,6-dibromo-4-nitro-2-(piperazin-1-yl)-1-(prop-2-yn-1-yl)-1H-1,3-benzodiazole hydrochloride]",53%,–,–,< 5%,< 5%,61%,3100 nM,1400 nM,–,–,–,–,–,–,–,–,5500 nM,–,6700 nM,–
"O=[N+]([O-])c1c(Br)c(Br)cc2c1nc(N1CCNCC1)n2CC1CCC1 [Example 2F, 5,6-dibromo-1-(cyclobutylmethyl)-4-nitro-2-(piperazin-1-yl)-1H-1,3-benzodiazole hydrochloride]",> 95%,70%,89%,78%,15%,> 95%,300 nM,1800 nM,–,–,–,–,–,–,–,–,–,–,2100 nM,–
"C#CCn1c(NCCCN)nc2c([N+](=O)[O-])c(Br)c(Br)cc21 [Example 2G, N-(3-aminopropyl)-5,6-dibromo-4-nitro-1-(prop-2-yn-1-yl)-1H-1,3-benzodiazol-2-amine hydrochloride]",71%,–,34%,10%,< 5%,25%,2300 nM,1300 nM,–,–,–,–,–,–,–,–,3100 nM,–,6000 nM,–
